Experimental findings from patent US20090318502A1, “Pharmaceutical Compositions Comprising a Hypoglycemic Agent and Methods of Using Same” (INTRANASAL THERAPEUTICS, INC., priority 2006, published 2009) are described below.

Data set [1] can be described thus: Solubility of repaglinide in formulation vehicles. The conditions noted are these: in 100% methoxy-polyethylene glycol, 350. Type of data set: physicochemical.
The nature of data set [2]: Storage stability and appearance of intranasal repaglinide formulations. It counts as physicochemical. The conditions noted are these: solution pH. The protocol: In one embodiment, a composition of the invention comprises at least 85%, at least 87%, at least 90%, at least 92%, at least 95%, at least 97%, or at least 99% of the original hypoglycemic agent (e.g., repaglinide) after storage (closed or open vessel) at 40° C. and 75% relative humidity for a period of at least 1 week, at least 2 weeks, at least 3 weeks, at least 4 weeks, at least 6 weeks, at least 8 weeks, at least 10 weeks, at least 15 weeks, at least 20 weeks, at least 25 weeks, at least 30 weeks, at least 35 weeks, at least 40 weeks, at least 45 weeks, or at least 50 weeks The formulations described in Table 1 below have shown good stability for a period of about one month. In particular, the formulations described in Example 1 below have shown no precipitation and have remained clear and colorless for a period of about one month.

With `CCOc1cc(CC(=O)N[C@@H](CC(C)C)c2ccccc2N2CCCCC2)ccc1C(=O)O` [repaglinide, Repaglinide], the solubility of repaglinide result in data set [1] is given as “poorly soluble or insoluble”. The “pH of solutions in which repaglinide was often more stable” value in data set [2] is “less than or equal to 9”.
